Key:
HL-60 cells [1] = assay: HL-60 cell proliferation and viability (FDA/PI staining); assay type: cell-based, human
Protocol: (§1) Cell culture. A suspension of human promyelocytic HL-60 cells was cultured in RPMI-1640 medium supplemented with a 10% calf foetal serum and antibiotics in 5% CO2 atmosphere at 37° C. Cells were maintained at density from 1×10^5 to 6×10^5 cells per ml. HL-60 cells were obtained from ECACC.
Cell viability assay. Double staining with fluorescein diacetate (FDA) and propidium iodide (PI) for discrimination of dead and living cells was used. Cells were stained in growing medium with PI at a concentration 10 μg/ml 5 min later FDA was added at a concentration 1 μg/ml. The percentage of dead cells (i.e., red stained cells) was evaluated using fluorescence microscopy (Mlejnek and Kolman 1999).

HL-60 cells [2] = assay: Induction of apoptosis in HL-60 cells (nuclear morphology, DNA fragmentation); assay type: cell-based, human; conditions: 24 h (FIG. 5-7)
Protocol: as §1
Morphological analysis of cell nuclei. Cells were harvested, washed in PBS, and fixed in an ice-cold methanol+acetic acid (3:1) fixation mixture. Aliquots of cells were spread on glass slides and stained with Hoechst 33342 (2 μg/ml) in PBS. The morphology of cell nuclei was examined by a fluorescence microscope (Mlejnek and Kuglik 2000).
DNA fragmentation assay. Aliquots of cells were washed in PBS and lysed by addition of DNA lysis buffer (50 mM Tris/HCl, pH=8.0, 10 mM EDTA, 0.5% sodium lauroyl sarcosine, and 0.5 mg/ml proteinase K) at 37° C. overnight. Samples were treated further with DNase-free RNase-A (0.2 mg/ml) at 37° C. for 3 h. The resulting extracts were loaded onto 1.8% agarose gel containing ethidium bromide (Mlejnek and Kuglik 2000).

caspase-3 = assay: Caspase protease activity measurement in cell extracts, caspase-3; assay type: cell-based, human; conditions: 20 μM, substrate Ac-DEVD-AMC (FIG. 9)
Protocol: Caspase protease activity measurement. Cells were washed in PBS and then extracted in buffer [50 mM HEPES, pH 7.4, 1 mM EDTA, 0.1% Chaps, 5 mM DTT, and proteinase inhibitor cocktail (Roche)] on ice. Cell extracts were centrifuged for 30 min at 30 000×g at 4° C. Clarified extract were immediately analysed or stored at −80° C. Measurement of proteolytic activity was done using synthetic fluorogenic substrates Ac-DEVD-AMC and Ac-LEHD-AMC for caspase-3 and -9, respectively. The assay was carried out in 1 ml tubes, aliquots of lysates (200-300 μg of total protein) were mixed with 1 ml of buffer (25 mM PIPES/KOH, 2 mM EGTA, 5 mM DTT, and 0.1% Chaps, pH 7.3) and reactions were initiated by adding 50 μM substrate. Samples were incubated for 1 hour at 30° C. before the fluorescence was determined. Excitation and emission wavelengths were the same for both substrates (380 nm and 445 nm, respectively).

Rosa hybrida ‘Pailin’ = assay: Early shoot senescence inhibition of tissue cultured roses; assay type: in vivo; conditions: 10 μM in medium
Protocol: Rosa hybrida ‘Pailin’ (a cut rose) was cultured in 350 ml vessels with a screw on polycarbonate lid. Each culture vessel contained 100 ml autoclaved medium (120° C., 20 min). The cultures were maintained at 23±2° C. under a 16 h photoperiod at […] m^−2 s^−1 PAR. The basal medium (MBR) contained Murashige and Skoog (1962) macroelements, microelements and vitamins, 36.7 mg/l NaFeEDTA, 50 mg/l NaFeEDDHA, […], 30 g/l sucrose, 100 mg/l glycine, 50 mg/l calcium pantothenate, 100 mg/l L-glutamine and 7 g/l agar-agar. This medium was supplemented with 10 μM of the tested cytokinin. New cytokinins were filter sterilised and added after autoclaving the medium in the vessels. 6-Benzylaminopurine (BAP) was used as a standard compound; the control medium didn't contain any cytokinin. After a culture period of 6 weeks, scoring senescence symptoms was started.

Compound	inhibition of HL-60 cell proliferation (HL-60 cells [1]; 2.5-60 μM (FIG. 4))	cytotoxicity of the compound itself versus its phosphorylated forms (HL-60 cells [1]; HL-60 cells)	induction of HL-60 cell death / apoptosis (HL-60 cells [2])	activation of caspase-3 (caspase-3)	senescence / dying of rose explants (in words) (Rosa hybrida ‘Pailin’; listed as 3MeOBAPR)	senescence / dying of rose explants (in words) (Rosa hybrida ‘Pailin’; listed as mMeOBAPR)
COc1cccc(CNc2ncnc3c2ncn3[C@@H]2O[C@H](CO)[C@@H](O)[C@H]2O)c1O [2-hydroxy-3-methoxybenzylamino, 6-(2-hydroxy-3-methoxybenzylamino)purine riboside]	inhibit cell proliferation	is not cell cytotoxic by itself	induce HL-60 cell death, with typical morphological and biochemical characteristics of apoptosis	activate caspase proteases, especially caspase-9 and -3	–	–
COc1cccc(CNc2ncnc3c2ncn3[C@@H]2O[C@H](CO)[C@@H](O)[C@H]2O)c1 [3-methoxybenzylamino, 6-(3-methoxybenzylamino)purine riboside]	–	–	–	–	Even after 121 days almost all plants were still alive	vigorous Rosa plantlet after 121 days of cultivation

— patent publication US8119614B2, “Substitution derivatives of N6-benzyladenosine, methods of their preparation, their use for preparation of drugs, cosmetic preparations and growth regulators, pharmaceutical preparations, cosmetic preparations and growth regulators containing these compounds” (Ustav Experimentalni Botaniky Akademie Ved Ceske Republiky, priority 2002, dated 2012)
